From US7652153B2, “Caspase inhibitors and uses thereof” (Vertex Pharmaceuticals Incorporated, priority 2004, dated 2010)

How the values were obtained:
[1] = molecular target: caspase-8 (Homo sapiens, UniProt Q14790); assay: Caspase-8 enzyme inhibition (Ki, method of Margolin et al.); assay type: biochemical; settings: Ac-DEVD-pNA substrate 80 μM, 37° C., pH 7.5; read-out: Ki C8
Description: (§1) Compounds of this invention may be tested using the methods described below.
(§2) In Vitro Assays Enzyme Inhibition
(§3) Ki values for test compounds with caspase-1 and caspase-8 were obtained by the method of Margolin et al. (J. Biol. Chem., 272 pp. 7223-7228 (1997)). Other caspases may be assayed similarly (see, e.g., WO 99/47545). Assays were performed in 10 mM Tris (Sigma Corp, St Louis Mo.) pH 7.5, 1 mM Dithiothreitol (DTT, Research Organic INC, Cleveland, Ohio) and 0.1% CHAPS (Pierce, Rockford Ill.) at 37° C. For caspase-3, a solution of 8% glycerol was added to the assay buffer to improve enzyme stability. A 65 μL aliquot of the assay buffer and 5 μL aliquot of the appropriate dilutions of inhibitor in DMSO where pipetted into a 96 well plate, treated with 10 μL of caspase, then diluted in assay buffer (0.5-40 nM active protein by active site titration). A control containing DMSO but no compound was included for each determination. The plates were then incubated for 15 minutes at 37° C., before addition of the appropriate substrate (20 μL, final concentration 1-4×KM, final assay volume 100 μL) to initiate the reaction. Reaction rates were measured at 37° C. either by following the time dependant increase in absorbance at 405 nm (for the pNA substrates) or in fluorescence (Ex 390, Em 460) (for the AMC substrates). The rates obtained were plotted against inhibitor concentration and the data fit to the Morrison tight-binding equation for competitive inhibitors (Morrison, J. F., Biochem. Biophys. Acta, 185 pp. 269-286 (1969)). The substrates used for the individual assays were as follows:
Caspase-8 Ac-DEVD-pNA (Bachem, King of Prussia, Pa.) (final concentration in assay 80 μM).

[2] = molecular target: T1, caspase-1 (Homo sapiens, UniProt P29466); assay: Caspase-1 enzyme inhibition (Ki, method of Margolin et al.); assay type: biochemical; settings: Suc-YVAD-pNA substrate 80 μM, 37° C., pH 7.5; read-out: Ki C1
T1 sequence (P29466 120-297 limits assumed): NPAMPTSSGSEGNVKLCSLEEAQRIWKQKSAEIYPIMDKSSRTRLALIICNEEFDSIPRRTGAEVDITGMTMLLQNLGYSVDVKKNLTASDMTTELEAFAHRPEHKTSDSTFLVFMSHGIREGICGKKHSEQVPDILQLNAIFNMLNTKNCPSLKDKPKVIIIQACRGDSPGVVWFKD
T1 sequence (P29466 317-404 limits assumed): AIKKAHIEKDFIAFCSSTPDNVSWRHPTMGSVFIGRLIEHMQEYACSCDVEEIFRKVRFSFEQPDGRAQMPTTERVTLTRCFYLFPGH
Description: as §1, §2, §3
Caspase-1 Suc-YVAD-pNA (Bachem, King of Prussia, Pa.) (final concentration in the assay 80 μM);

Sequence of caspase-8 (Q14790 217-374 limits assumed, species assumed): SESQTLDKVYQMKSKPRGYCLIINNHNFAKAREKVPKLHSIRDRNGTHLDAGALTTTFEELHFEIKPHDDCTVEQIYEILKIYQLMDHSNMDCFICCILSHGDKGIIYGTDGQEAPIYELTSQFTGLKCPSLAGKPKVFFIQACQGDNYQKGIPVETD
Sequence of caspase-8 (Q14790 385-479 limits assumed, species assumed): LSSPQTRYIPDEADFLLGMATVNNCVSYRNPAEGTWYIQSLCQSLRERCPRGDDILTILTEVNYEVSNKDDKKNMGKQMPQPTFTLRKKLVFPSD

SMILES | Ki [1] | Ki [2]
CC(C)[C@H](NC(=O)c1c(Cl)cccc1Cl)C(=O)N1CCC[C@H]1C(=O)N[C@H](C=O)CC(=O)O [II-13, (S,S,S)-(3S)-({1-[(2S)-(2,6-Dichloro-benzoylamino)-3-methyl-butyryl]-pyrrolidine-(2S)-carbonyl}-amino)-4-oxo-butyric acid] | 0.01 to 0.02 µM | 0.01 to 0.02 µM
CC(C)[C@H](NC(=O)c1ccccc1Cl)C(=O)N1CCC[C@H]1C(=O)N[C@H](C=O)CC(=O)O [II-2, (S,S,S)-(3S)-({1-[(2S)-(2-Chloro-benzoylamino)-3-methyl-butyryl]-pyrrolidine-(2S)-carbonyl}-amino)-4-oxo-butyric acid] | < 0.01 µM | < 0.01 µM
Cc1ncccc1C(=O)N[C@H](C(=O)N1CCC[C@H]1C(=O)N[C@H](C=O)CC(=O)O)C(C)C [II-15, (S,S,S)-(3S)-[(1-{3-Methyl-(2S)-[(2-methyl-pyridine-3-carbonyl)-amino]-butyryl}-pyrrolidine-(2S)-carbonyl)-amino]-4-oxo-butyric acid] | 0.021 to 0.03 µM | < 0.01 µM
CC(=O)Nc1cccc(C(=O)N[C@H](C(=O)N2CCC[C@H]2C(=O)N[C@H](C=O)CC(=O)O)C(C)(C)C)c1C [II-42, (S,S,S)-(3S)-({1-[(2S)-(2-methyl-3-acetamido-benzoylamino)-3,3-dimethyl-butyryl]-pyrrolidine-(2S)-carbonyl}-amino)-4-oxo-butyric acid] | 0.01 to 0.02 µM | < 0.01 µM
CC(C)Oc1ccc(C(=O)N[C@H](C(=O)N2CCC[C@H]2C(=O)N[C@H](C=O)CC(=O)O)C(C)C)c(Cl)c1 [II-46, (S,S,S)-(3S)-({1-[(2S)-(2-chloro-4-isopropyloxy-benzoylamino)-3-methyl-butyryl]-pyrrolidine-(2S)-carbonyl}-amino)-4-oxo-butyric acid] | 0.021 to 0.03 µM | < 0.01 µM
COc1cccc(C(=O)N[C@H](C(=O)N2[C@@H]3CC[C@@H](C3)[C@H]2C(=O)NC(C=O)CC(=O)O)C(C)(C)C)c1C (stereo in doubt) [II-55, (3S)-({2-[(2S)-(3-Methoxy-2-methyl-benzoylamino)-3,3-dimethyl-butyryl]-2-(1S,4R)-aza-bicyclo[2.2.1]heptane-(3S)-carbonyl}-amino)-4-oxo-butyric acid] | < 0.01 µM | < 0.01 µM
CC(=O)Nc1ccc(C(=O)N[C@H](C(=O)N2[C@@H]3CC[C@@H](C3)[C@H]2C(=O)N[C@H](C=O)CC(=O)O)C(C)(C)C)cc1Cl (stereo in doubt) [II-62, (3S)-({2-[(2S)-(4-Acetylamino-3-chloro-benzoylamino)-3,3-dimethyl-butyryl]-2-(1S,4R)-aza-bicyclo[2.2.1]heptane-(3S)-carbonyl}-amino)-4-oxo-butyric acid] | 0.01 to 0.02 µM | < 0.01 µM
COc1ccc(C)c(C(=O)N[C@H](C(=O)N2CCC[C@H]2C(=O)N[C@H](C=O)CC(=O)O)C(C)C)c1 [II-22, (S,S,S)-(3S)-({1-[(2S)-(5-Methoxy-2-methyl-benzoylamino)-3-methyl-butyryl]-pyrrolidine-(2S)-carbonyl}-amino)-4-oxo-butyric acid] | 0.021 to 0.03 µM | < 0.01 µM
COCc1ccc(C(=O)N[C@H](C(=O)N2CCC[C@H]2C(=O)N[C@H](C=O)CC(=O)O)C(C)(C)C)c(Cl)c1 [II-48, (S,S,S)-(3S)-({1-[(2S)-(2-chloro-4-methoxymethyl-benzoylamino)-3,3-dimethyl-butyryl]-pyrrolidine-(2S)-carbonyl}-amino)-4-oxo-butyric acid] | < 0.01 µM | < 0.01 µM

Results, then the compound that gave them:

Ki [1] | Ki [2] | SMILES
< 0.01 µM | < 0.01 µM | Cc1ccccc1C(=O)N[C@H](C(=O)N1CCC[C@H]1C(=O)N[C@H](C=O)CC(=O)O)C(C)C [II-3, (S,S,S)-(3S)-({1-[3-Methyl-(2S)-(2-methyl-benzoylamino)-butyryl]-pyrrolidine-(2S)-carbonyl}-amino)-4-oxo-butyric acid]
< 0.01 µM | < 0.01 µM | CC(=O)Nc1ccc(C(=O)N[C@H](C(=O)N2CCC[C@H]2C(=O)N[C@H](C=O)CC(=O)O)C(C)(C)C)c(Cl)c1 [II-43, (S,S,S)-(3S)-({1-[(2S)-(2-chloro-4-acetamido-benzoylamino)-3,3-dimethyl-butyryl]-pyrrolidine-(2S)-carbonyl}-amino)-4-oxo-butyric acid]
< 0.01 µM | < 0.01 µM | CC(C)(C)[C@H](NC(=O)c1ccccc1Cl)C(=O)N1CCC[C@H]1C(=O)N[C@H](C=O)CC(=O)O [II-28, (S,S,S)-(3S)-({1-[(2S)-(2-Chloro-benzoylamino)-3,3-dimethyl-butyryl]-pyrrolidine-(2S)-carbonyl}-amino)-4-oxo-butyric acid]
< 0.01 µM | < 0.01 µM | COC(=O)Nc1ccc(C(=O)N[C@H](C(=O)N2CCC[C@H]2C(=O)N[C@H](C=O)CC(=O)O)C(C)(C)C)c(Cl)c1 [II-51, (S,S,S)-(3S)-({1-[(2S)-(2-chloro-4-methoxycarbonylamino-benzoylamino)-3,3-dimethyl-butyryl]-pyrrolidine-(2S)-carbonyl}-amino)-4-oxo-butyric acid]
< 0.01 µM | < 0.01 µM | CC(C)C(=O)Nc1ccc(C(=O)N[C@H](C(=O)N2CCC[C@H]2C(=O)N[C@H](C=O)CC(=O)O)C(C)(C)C)c(Cl)c1 [II-49, (S,S,S)-(3S)-({1-[(2S)-(2-chloro-4-isobutyrylamido-benzoylamino)-3,3-dimethyl-butyryl]-pyrrolidine-(2S)-carbonyl}-amino)-4-oxo-butyric acid]
< 0.01 µM | 0.01 to 0.02 µM | CC(C)[C@H](NC(=O)c1ccc(N)c(Cl)c1)C(=O)N1[C@@H]2CC[C@@H](C2)[C@H]1C(=O)N[C@H](C=O)CC(=O)O (stereo in doubt) [II-66, (3S)-({2-[(2S)-(4-Amino-3-chloro-benzoylamino)-3-methyl-butyryl]-2-(1S,4R)-aza-bicyclo[2.2.1]heptane-(3S)-carbonyl}-amino)-4-oxo-butyric acid]
< 0.01 µM | < 0.01 µM | Cc1c(O)cccc1C(=O)N[C@H](C(=O)N1CCC[C@H]1C(=O)N[C@H](C=O)CC(=O)O)C(C)C [II-6, (S,S,S)-(3S)-({1-[(2S)-(3-Hydroxy-2-methyl-benzoylamino)-3-methyl-butyryl]-pyrrolidine-(2S)-carbonyl}-amino)-4-oxo-butyric acid]
< 0.01 µM | < 0.01 µM | CC(=O)Nc1cccc(C(=O)N[C@H](C(=O)N2CCC[C@H]2C(=O)N[C@H](C=O)CC(=O)O)C(C)(C)C)c1Cl [II-41, (S,S,S)-(3S)-({1-[(2S)-(2-Chloro-3-acetamido-benzoylamino)-3,3-dimethyl-butyryl]-pyrrolidine-(2S)-carbonyl}-amino)-4-oxo-butyric acid]
< 0.01 µM | < 0.01 µM | CC(C)(C)[C@H](NC(=O)c1cccc(OCC2CC2)c1Cl)C(=O)N1CCC[C@H]1C(=O)N[C@H](C=O)CC(=O)O [II-38, (S,S,S)-(3S)-({1-[(2S)-(2-Chloro-3-cyclopropylmethoxy-benzoylamino)-3,3-dimethyl-butyryl]-pyrrolidine-(2S)-carbonyl}-amino)-4-oxo-butyric acid]
< 0.01 µM | < 0.01 µM | CC(C)(C)[C@H](NC(=O)c1ccccc1Cl)C(=O)N1[C@@H]2CC[C@@H](C2)[C@H]1C(=O)NC(C=O)CC(=O)O (stereo in doubt) [II-56, (3S)-({2-[(2S)-(2-Chloro-benzoylamino)-3,3-dimethyl-butyryl]-2-(1S,4R)-aza-bicyclo[2.2.1]heptane-(3S)-carbonyl}-amino)-4-oxo-butyric acid]
0.021 to 0.03 µM | < 0.01 µM | CC(C)[C@H](NC(=O)c1c(N)cccc1Cl)C(=O)N1CCC[C@H]1C(=O)N[C@H](C=O)CC(=O)O [II-53, (S,S,S)-(3S)-({1-[(2S)-(2-chloro-6-amino-benzoylamino)-3-methyl-butyryl]-pyrrolidine-(2S)-carbonyl}-amino)-4-oxo-butyric acid]
< 0.01 µM | < 0.01 µM | COc1cccc(C(=O)N[C@H](C(=O)N2C3CC[C@@H](C3)[C@H]2C(=O)N[C@H](C=O)CC(=O)O)C(C)C)c1F (stereo in doubt) [II-61, (3S)-({2-[(2S)-(2-Fluoro-3-methoxy-benzoylamino)-3-methyl-butyryl]-2-(1S,4R)-aza-bicyclo[2.2.1]heptane-(3S)-carbonyl}-amino)-4-oxo-butyric acid]
